Assay results taken from patent US20060058346A1, “Novel enantiomers of etrahydroisoquinoline derivatives and theirpharmaceutically acceptable salts, their preparations and pharmaceutical compositions” (priority 2002, published 2006).
Where two headings read alike, the source gives them in different places.

How the values were obtained:
[1] = tested on: rat with DIC and MOF induced by endotoxin; test: Endotoxin-induced DIC and multiple organ failure in rat; assay type: in vivo
Experimental: Rats (Crj:CD(SD); 250±20 g) were used to test sample. Before the compound was administered, the rat was not fed. The compound was orally administered one time per day for two days in an amount of 10 mg˜25 mg/10 ml/kg/day. Distilled water (control group and LPS group) or enantiomer was administered to the rat repeatedly. After one hour, rat was anaesthetized with intramuscular injection of 50 mg/kg of pentobarbital. […] Thereafter, 50 mg/kg of pentobarbital was injected at 2 hour to the rat by intramuscular injection. Therefore, the rat was anaesthetized for all the experiment and operation.
The blood (2 ml for FDP and 6 ml for other variables) was collected from abdominal artery using a plastic syringe, into glass tube containing soy bean trypsin inhibitor and Bothrops atrox venom to measure FDP and into plastic tube containing 2.2% sodium citrate (1/10, volume/volume). The aggregated blood was centrifuged at 1200×g for 5 minutes two times. Before measurement of FDP, the supernatant was stored at freezer for at least 12 hours. Citrated blood was centrifuged at 2000×g for 30 minutes. The supernatant was used for measurement of fibrinogen and PT or APTT time. The aggregated blood collected in glass tube was disposed at the room temperature for 30 min, centrifuged to give the serum for measurement of AST and BUN.
Platelet from total citrated blood was counted by using automatic platelet counter (PLT-4, Texas International Lab.) PT or APTT time was measured by Beckton Dickenson BBL Fibrosystem (Coctkeysville, USA). FDP analysis was accomplished by using Thrombo-wellcotest kit. The said analysis was accomplished by up and down dilution method semi-quantitatively. Measurement of AST and BUN was accomplished by using Autobiochemical analyzer (Hitach 747, Japan).

[2] = tested on: left auricle muscle; test: Contractile force of left auricle muscle excised from rats; parameters: species or system rat; conditions: for Contractile Force of Auricle Muscles: vehicle control:100%
Experimental: (§1) Immediately after Sprague-Dawley rats (female or male) were anaesthetized with pentobarbital sodium (50 mg/kg, i.m.), the thorax was opened to excise the heart. The heart was submerged in Krebs solution, and left auricle muscle and right auricle muscle were then isolated. The left auricle muscle was placed in an organ bath for recording of contractile force, and applied with electrical field stimulation (voltage 10% higher than threshold voltage, 1 Hz frequency, 5 ms duration). In the case of right auricle muscle, which contracts spontaneously, the number of continuous beats was recorded. In this experiment, to measure contractile fore of the two auricle muscles, the organ bath was warmed to 37° C., and as a physiological solution, Krebs solution (119.8 mM NaCl, 4.6 mM KCl, 2.5 mM CaCl2, 1.2 mM MgCl2, 25 mM NaHCO3, 1.2 mM KH2PO4, 10 mM glucose, 1 mM EDTA, pH 7.4) was used. The Krebs solution (pH 7.4) was continuously saturated with a gas mixture of 95% O2 and 5% CO2. The auricle muscle was under a tension of 1 g, and Krebs solution was exchanged with fresh solution at intervals of 20 minutes while equilibrium was maintained during a recording period of 60 minutes.

[3] = tested on: Rat Thoracic Aortas; test: Relaxation of rat thoracic aortas contracted by phenylephrine; conditions: for IC50: Rattus norvegicus, Endothelial cell, 0.1 μM phenylephrine contraction; for relaxation of contracted blood vessels: concentration-dependant manner
Experimental: Experimental group was divided into two groups, group containing endothelial cells of blood vessel and group not containing. Blood vessel of thoracic aortas was induced to contract by treatment with 0.1 μM of phenyleprine under tension of 1 g. Upon arriving at equilibrium, the enantiomers were added to an organ bath in a cumulative manner. Relaxation of thoracic aortas was recorded using a physiograph (Grass P7), calculating their response to the compounds with consideration of their added amount.

[4] = tested on: right auricle muscle; test: Heart rates (beats) of right auricle muscle excised from rats; parameters: species or system rat; conditions: for Heart Rates of Auricle Muscles: vehicle control:100%
Experimental: as §1

[5] = Acute toxicity in rat (LD50); assay type: in vivo; conditions: Sprague-Dawley, in vivo
Experimental: Sprague-Dawley rats (six weeks) were used as test sample. Each group was comprised of two rats. […] The said emulsion was administered to two rats one times using intravenous injection and intraperitoneal injection.

[6] = tested on: LPS-injected rat; test: Survival in LPS-injected rat; assay type: in vivo
Experimental: Rats (25˜30 g, ICR), originated from NIH cancer institute (Bethesda, Md., USA) were purchased from Korea Test Animal Corp. (Unsung, Korea). 20 mg/kg of LPS was injected to abdominal cavity of the rat. Thereafter, survival was observed every 24 hours for seven days, to investigate effect of enantiomer on the survival in LPS-injected rat. The compound represented by formula 3 to 8 was administered 30 min before the LPS injection.

[7] = tested on: rat PRP; test: Inhibition of platelet aggregation in rat PRP; assay type: cell-based; conditions: for IC50: Platelet, rat PRP
Experimental: Male rat (weighing 200±20 g) was anaesthetized with ether. The blood (nine volumes) was collected from heart using a plastic syringe containing 2.2% sodium citrate (one volume). The collected blood was centrifuged at 200×g for 10 minutes to give supernatant platelet-rich plasma (PRP). The residue was centrifuged again at 700×g for 30 minutes, giving platelet-poor plasma (PPP) for experiment. We used a platelet analyzer to count the number of platelet of the PRP. PRP was diluted with physiological saline solution to prepare solution containing platelets in an amount of 400-450×10^6/ml. The inhibitory effects of the compound represented by formulas 3 to 8 was evaluated by platelet aggregation analyzer, and the inhibitory effect of each compound is given as % below. That is, after PRP was incubated for 3 minutes at 37° C., the compounds or a carrier was added thereto, and after 1 min, platelet aggregation-inducing agent such as ADP, collagen, arachidonic acid (AA), U46619 or epinephrine was added thereto, followed by investigation of turbidity caused by aggregation of platelets. % Inhibition=A−B/A×100 [arithmetic formula 1] • (A: Platelet aggregation rate in group treated with an aggregation-inducing agent; • B: Platelet aggregation rate in group treated with both an aggregation-inducing agent and the enantiomers simultaneously)

[8] = group containing endothelial cells, read-out: IC50 (E+), concentration showing relaxation response of 50%
[9] = group not containing endothelial cells, read-out: IC50 (E−), concentration showing relaxation response of 50%
[10] = ip, single intraperitoneal injection, read-out: LD50, Intraperitioneal injection
[11] = single intravenous injection, read-out: LD50, Intravenous injection
[12] = 15 mg/kg compound 30 min before LPS 20 mg/kg i.p.
[13] = 30 mg/kg compound 30 min before LPS 20 mg/kg i.p.
[14] = ADP 2 − 5 × 10^−6 M, read-out: IC50 platelet aggregation, ADP
[15] = U46619 1.5 × 10^−6 M with threshold collagen, read-out: IC50 platelet aggregation, U46619
[16] = arachidonic acid 1 − 4 × 10^−5 M with threshold collagen, read-out: IC50 platelet aggregation, AA
[17] = collagen 2 − 5 × 10^−6 g/ml, read-out: IC50 platelet aggregation, collagen
[18] = epinephrine 1 − 4 × 10^−6 M with threshold collagen, read-out: IC50 platelet aggregation, Epinephrine

Compound	effect on contractile force of auricle muscles [2]	Contractile Force of Auricle Muscles ([2]; 1 × 10^−4 M)	Contractile Force of Auricle Muscles ([2]; 1 × 10^−5 M)	Contractile Force of Auricle Muscles ([2]; 1 × 10^−6 M)	Contractile Force of Auricle Muscles ([2]; 1 × 10^−7 M)	Contractile Force of Auricle Muscles ([2]; 3 × 10^−5 M)	Contractile Force of Auricle Muscles ([2]; 3 × 10^−6 M)	Contractile Force of Auricle Muscles ([2]; 3 × 10^−7 M)	IC50 [3, 8]	IC50 [3, 9]	relaxation of contracted blood vessels [3]	effect on heart rates of auricle muscles [4]	Heart Rates of Auricle Muscles ([4]; 1 × 10^−4 M)	Heart Rates of Auricle Muscles ([4]; 1 × 10^−5 M)	Heart Rates of Auricle Muscles ([4]; 1 × 10^−6 M)	Heart Rates of Auricle Muscles ([4]; 1 × 10^−7 M)	Heart Rates of Auricle Muscles ([4]; 3 × 10^−5 M)	Heart Rates of Auricle Muscles ([4]; 3 × 10^−6 M)	Heart Rates of Auricle Muscles ([4]; 3 × 10^−7 M)	LD50 [5, 10]	also measured
Oc1cc2c(cc1O)[C@H](Cc1cccc3ccccc13)NCC2 [Formula 5]	strongly increased	700%	630%	450%	200%	660%	550%	280%	0.714 µM	5.5 µM	induced relaxation	strongly stimulated	190%	180%	175%	150%	187%	178%	162.5%	397 mg/kg	platelet concentration, higher than with R-configuration ([1]; 10 mg/kg oral, LPS 15 mg/kg i.v. 4 hours): 20%; serum level of FDP compared with R-configuration ([1]; 10 mg/kg, FIG. 4): lower; LD50 [5, 11]: 172 mg/kg; survival after six days [6, 12]: 100%; survival after six days [6, 13]: 100%; survival at 30 mg/kg than 15 mg/kg ([6]; LPS 20 mg/kg): increased; IC50 [7, 14]: 240 µM; IC50 [7, 15]: 16 µM; IC50 [7, 16]: 5.6 µM; IC50 [7, 17]: 69 µM; IC50 [7, 18]: 0.38 µM; inhibitory effect on epinephrine-induced platelet aggregation, times as strong as R-enantiomer ([7]; epinephrine, S versus R): about six times as strong; inhibitory effect on epinephrine-induced platelet aggregation, times as strong as racemic mixture ([7]; epinephrine, S versus racemic mixture): about five times as strong
Oc1cc2c(cc1O)[C@@H](Cc1cccc3ccccc13)NCC2 [Formula 6, (R)-6,7-Dihydroxy-1-(α-naphthylmethyl)-1,2,3,4-tetrahydroisoquinoline]	no effect	50%	50%	75%	100%	50%	50%	87%	1.28 µM	8.81 µM	induced relaxation	no effect	71%	85%	93.75%	100%	75%	94%	93.75%	230 mg/kg	serum level of AST ([1]; LPS 15 mg/kg i.v. 4 hours): at the normal level; LD50 [5, 11]: 88 mg/kg; survival after six days [6, 12]: 73%; survival after six days [6, 13]: 93%; IC50 [7, 14]: 540 µM; IC50 [7, 15]: 20 µM; IC50 [7, 16]: 11 µM; IC50 [7, 17]: 140 µM; IC50 [7, 18]: 2.4 µM
